The values that follow come from US9783532B2, “Molecules having certain pesticidal utilities, and intermediates, compositions, and processes related thereto” (Dow AgroSciences LLC, priority 2013, dated 2017).

What all share (type): in vivo
In data set [1] the test system is Cabbage Looper (Trichoplusia ni) ("CL"). Nature of the data set: Bioassay on cabbage looper (CL), 128-well diet tray assay. The following applies: for mortality at 50 µg/cm2: 168 h, 50 μg/cm^2 on artificial diet, second instar CL larvae, 25° C., five to seven days, average of eight wells, read-out: CL % Control (or Mortality) rating; for pest or weed control at 50 µg/cm2: Table ABC (FB), activity rating class, read-out: CL (Biological Results, Insect species). The gist of the method: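 Percent mortality, averaged across eight replicate wells, was read after five to seven days at 25 °C under a 14:10 photoperiod. Each well held one to five second-instar T. ni on diet carrying a dried 50 μg/cm^2 dose applied in acetone-water 90:10.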

In data set [2] the test system is Yellow Fever Mosquito "YFM" (Aedes aegypti). The following applies: for YFM % Control (or Mortality) rating: about 1 day-old larvae, 96-well plate, room temperature, 3 days; for YFM (Biological Results, Insect species): Table ABC (FB), activity rating class. The method in brief:
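About 1 day-old Aedes aegypti larvae in liver-powder water added to wells holding compound diluted from 4000 ppm DMSO stock with 90:10 water:acetone, 6 replicate plates. Plates kept covered at room temperature for 3 days. Wells scored for mortality and reported as rating categories.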

For data set [3], the system named is Green Peach Aphid ("GPA") (Myzus persicae). Nature of the data set: Bioassay on green peach aphid (GPA), foliar spray on cabbage seedlings. As to conditions: for mortality at 200 ppm: Myzus persicae, foliar, 72 h, 200 ppm spray on infested cabbage seedlings, three days, Abbott corrected % control, read-out: GPA % Control (or Mortality) rating; for GPA (Biological Results, Insect species): Table ABC (FB), activity rating class. As to the method:
Certain molecules disclosed in this document were tested against GPA using procedures described in the following example. In the reporting of the results, the “GPA Rating Table” was used (See Table Section).
Cabbage seedlings grown in 3-inch pots, with 2-3 small (3-5 cm) true leaves, were used as test substrate. The seedlings were infested with 20-50 GPA (wingless adult and nymph stages) one day prior to chemical application. Four pots with individual seedlings were used for each treatment. Test compounds (2 mg) were dissolved in 2 mL of acetone/methanol (1:1) solvent, forming stock solutions of 1000 ppm test compound. The stock solutions were diluted 5× with 0.025% Tween 20 in water to obtain the solution at 200 ppm test compound. A hand-held aspirator-type sprayer was used for spraying a solution to both sides of […] leaves until runoff. Reference plants (solvent check) were sprayed with the diluent only containing 20% by volume of acetone/methanol (1:1) solvent. Treated plants were held in a holding room for three days at approximately 25° C. and ambient relative humidity (RH) prior to grading. Evaluation was conducted by counting the number of live aphids per plant under a microscope. Percent Control was measured by using Abbott's correction formula (W. S. Abbott, “A Method of Computing the Effectiveness of an Insecticide” J. Econ. Entomol. 18 (1925), pp. 265-267) as follows. Corrected % Control=100*(X−Y)/X • where • X=No. of live aphids on solvent check plants and • Y=No. of live aphids on treated plants

For data set [4], the system named is Beet Armyworm (Spodoptera exigua) ("BAW"). The data set is described as follows: Bioassay on beet armyworm (BAW), 128-well diet tray assay. As to conditions: for mortality at 50 µg/cm2: 168 h, 50 μg/cm^2 on artificial diet, second instar BAW larvae, 25° C., five to seven days, average of eight wells, read-out: BAW % Control (or Mortality) rating; for pest or weed control at 50 µg/cm2: Table ABC (FB), activity rating class, read-out: BAW (Biological Results, Insect species). The method in brief: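 Percent mortality, averaged across eight wells, was read after five to seven days at 25° C. under 14:10 light-dark. Each well held one to five second-instar larvae on artificial diet that had been treated with 50 μg/cm^2 compound in 90:10 acetone-water and dried.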

Turning to `CC(C)c1ccccc1NC(=S)NC(=O)NCCc1ccc(-c2ncn(-c3ccc(OC(F)(F)F)cc3)n2)cc1` [F2, N-[2-isopropylphenyl]-N-[2-(4-{1-[4-(trifluoromethoxy)phenyl]-1H-1,2,4-triazol-3-yl}phenyl)ethyl]dicarbonimidothioic diamide], the mortality at 50 µg/cm2 in data set [1] and in data set [4] was 50 to 100% each time. Moreover, in data set [2], the “YFM % Control (or Mortality) rating” value is “A (80-100)”. Moreover, the mortality (in general, the percentage killed) at 200 ppm in data set [3] fell in the range of 0 to 80%.
`Cc1ccc(C(C)C)c(N2C(=O)CS/C2=N\C(=O)NCCc2ccc(-c3ncn(-c4ccc(OC(F)(F)F)cc4)n3)cc2)c1` [F5, (Z)-1-(3-(2-isopropropyl-5-methylphenyl)-4-oxothiazolidin-2-ylidene)-3-(4-(1-(4-(trifluoromethoxy)phenyl)-1H-1,2,4-triazol-3-yl)phenethyl)urea]: the mortality at 50 µg/cm2 in data set [1] and in data set [4] was 50 to 100% in each case. Moreover, the “YFM % Control (or Mortality) rating” value in data set [2] is “A (80-100)”. The mortality at 200 ppm in data set [3] was in the range of 80 to 100%.
Take `COc1ccc(C(C)C)c(N2C(=O)CS/C2=N\C(=O)NCCc2ccc(-c3ncn(-c4ccc(OC(F)(F)F)cc4)n3)cc2)c1` [F6, (Z)-1-(3-(2-isopropyl-5-methoxyphenyl)-4-oxothiazolidin-2-ylidene)-3-(4-(1-(4-(trifluoromethoxy)phenyl)-1H-1,2,4-triazol-3-yl)phenethyl)urea]: the mortality at 50 µg/cm2 in data set [1] and in data set [4] was 50 to 100% in each case. Besides, the “YFM % Control (or Mortality) rating” value in data set [2] is given as “A (80-100)”. The mortality at 200 ppm in data set [3] fell in the range of 0 to 80%.
As for `CC(Cc1ccc(-c2ncn(-c3ccc(OC(F)(F)F)cc3)n2)cc1)NC(=O)/N=C1\SCC(=O)N1c1ccccc1C(C)C` (centres unmarked) [F7, (Z)-1-(3-(2-isopropylphenyl)-4-oxothiazolidin-2-ylidene)-3-(1-(4-(1-(4-(trifluoromethoxy)phenyl)-1H-1,2,4-triazol-3-yl)phenyl)propan-2-yl)urea], the mortality at 50 µg/cm2 in data set [1] and in data set [4] was 50 to 100% in each case. Further, the “YFM % Control (or Mortality) rating” value in data set [2] is given as “A (80-100)”. Besides, in data set [3], the mortality at 200 ppm fell in the range of 0 to 80%.
As to `Cc1ccc(C(C)C)c(N2C(=O)CS/C2=N\C(=O)NCCc2ccc(-c3ncn(-c4ccc(OC(F)(F)C(F)(F)F)cc4)n3)cc2)c1` [F9, (Z)-1-(3-(2-isopropyl-5-methylphenyl)-4-oxothiazolidin-2-ylidene)-3-(4-(1-(4-(perfluoroethoxy)phenyl)-1H-1,2,4-triazol-3-yl)phenethyl)urea], the mortality at 50 µg/cm2 in data set [1] and in data set [4] was 50 to 100% in each case. Also, the “YFM % Control (or Mortality) rating” value in data set [2] is given as “A (80-100)”. For the same compound, the mortality at 200 ppm in data set [3] amounted to 0%.
Regarding `Cc1ccc(C(C)C)c(N2C(=O)CS/C2=N\C(=O)NCC(C)c2ccc(-c3ncn(-c4ccc(OC(F)(F)F)cc4)n3)cc2)c1` (centres unmarked) [F10, (Z)-1-(3-(2-isopropyl-5-methylphenyl)-4-oxothiazolidin-2-ylidene)-3-(2-(4-(1-(4-(trifluoromethoxy)phenyl)-1H-1,2,4-triazol-3-yl)phenyl)propyl)urea], the mortality at 50 µg/cm2 in data set [1] and in data set [4] was 50 to 100% in each case. Besides, in data set [2], the “YFM % Control (or Mortality) rating” value is given as “A (80-100)”. In addition, the mortality at 200 ppm in data set [3] lay in the range of 0 to 80%.
On to `CC(C)c1ccccc1NC(=S)NC(=O)NCc1ccc(-c2ncn(-c3ccc(OC(F)(F)F)cc3)n2)cc1` [F14, N-[2-(propan-2-yl)phenyl]-N′-(4-{1-[4-(trifluoromethoxy)phenyl]-1H-1,2,4-triazol-3-yl}benzyl)dicarbonimidothioic diamide], for which the mortality at 50 µg/cm2 in data set [1] and in data set [4] was 50 to 100% each time. The “YFM % Control (or Mortality) rating” value in data set [2] is recorded as “A (80-100)”. The mortality at 200 ppm in data set [3] was determined as 0%.
Turning to `Cc1ccc(C(C)C)c(NC(=S)NC(=O)NCCCc2ccc(-c3ncn(-c4ccc(OC(F)(F)F)cc4)n3)cc2)c1` [F21, 1-[(2-isopropyl-5-methyl-phenyl)carbamothioyl]-3-[3-[4-[1-[4-(trifluoromethoxy)phenyl]-1H-1,2,4-triazol-3-yl]phenyl]propyl]urea], the mortality at 50 µg/cm2 in data set [1] and in data set [4] was 50 to 100% throughout. Further, in data set [2], the “YFM % Control (or Mortality) rating” value is “A (80-100)”. Also, the mortality at 200 ppm in data set [3] amounted to 0%.
On to `CC(C)c1ccccc1N1C(=O)CS/C1=N\C(=O)NC1CC1c1ccc(-c2ncn(-c3ccc(OC(F)(F)F)cc3)n2)cc1` (centres unmarked) [F29, (Z)-1-(3-(2-isopropylphenyl)-4-oxothiazolidin-2-ylidene)-3-(2-(4-(1-(4-(trifluoromethoxy)phenyl)-1H-1,2,4-triazol-3-yl)phenyl)cyclopropyl)urea], for which the mortality at 50 µg/cm2 in data set [1] and in data set [4] was 50 to 100% in each case. The “YFM % Control (or Mortality) rating” value in data set [2] is “A (80-100)”. In addition, in data set [3], the mortality at 200 ppm stood at 0%.
With `CCc1ccc(C)cc1N1C(=O)CS/C1=N\C(=O)NC1CC1c1ccc(-c2ncn(-c3ccc(OC(F)(F)F)cc3)n2)cc1` (centres unmarked) [F33, (Z)-1-(3-(2-ethyl-5-methylphenyl)-4-oxothiazolidin-2-ylidene)-3-(2-(4-(1-(4-(trifluoromethoxy)phenyl)-1H-1,2,4-triazol-3-yl)phenyl)cyclopropyl)urea], the mortality at 50 µg/cm2 in data set [1] and in data set [4] was 50 to 100% each time. Also, in data set [3], the mortality at 200 ppm worked out at 0%.
Regarding `Cc1ccc(C(C)C)c(N2CCS/C2=N\C(=O)NC2CC2c2ccc(-c3ncn(-c4ccc(OC(F)(F)F)cc4)n3)cc2)c1` (centres unmarked) [F34, (Z)-1-(3-(2-isopropyl-5-methylphenyl)thiazolidin-2-ylidene)-3-(2-(4-(1-(4-(trifluoromethoxy)-phenyl)-1H-1,2,4-triazol-3-yl)phenyl)cyclopropyl)urea], the mortality at 50 µg/cm2 in data set [1] and in data set [4] was 50 to 100% throughout. Also, in data set [3], the mortality at 200 ppm was determined as 0%.
For `CCC(Cc1ccc(-c2ncn(-c3ccc(OC(F)(F)F)cc3)n2)cc1)NC(=O)/N=C1\SCC(=O)N1c1cc(C)ccc1C(C)C` (centres unmarked) [FB43, (Z)-1-(3-(2-isopropyl-5-methylphenyl)-4-oxothiazolidin-2-ylidene)-3-(1-(4-(1-(4-(trifluoromethoxy)phenyl)-1H-1,2,4-triazol-3-yl)phenyl)butan-2-yl)urea], the pest or weed control at 50 µg/cm2 in data set [1] and in data set [4] was 50 to 100% throughout. Besides, the “YFM (Biological Results, Insect species)” value in data set [2] was “A (80-100)”. Besides, the “GPA (Biological Results, Insect species)” value in data set [3] was “B (More than 0-Less than 80)”.
As to `CCC(Cc1ccc(-c2ncn(-c3ccc(OC(F)(F)F)cc3)n2)cc1)NC(=O)/N=C1\SCC(=O)N1c1cc(Cl)ccc1C(C)C` (centres unmarked) [FB44, (Z)-1-(3-(5-chloro-2-isopropylphenyl)-4-oxothiazolidin-2-ylidene)-3-(1-(4-(1-(4-(trifluoromethoxy)phenyl)-1H-1,2,4-triazol-3-yl)phenyl)butan-2-yl)urea], the pest or weed control at 50 µg/cm2 in data set [1] and in data set [4] was 50 to 100% each time. Also, in data set [2], the “YFM (Biological Results, Insect species)” value is on record as “A (80-100)”. Also, the “GPA (Biological Results, Insect species)” value in data set [3] is “B (More than 0-Less than 80)”.
